Source: patent US7829578B1, “Aromatic ketones and uses thereof” (Oregon Health & Science University, priority 2005, dated 2010)
Like-named read-outs stand apart in the source and are kept apart here.

Experiments:
Format in all cases: cell-based
[1] = test system: multi-drug resistant (Dd2) strain of Plasmodium falciparum; experiment: In vitro antimalarial MSF (SyBrGreen I fluorescence) assay, Dd2 strain
Procedure: (§1) Four different laboratory strains of P. falciparum were cultured in human erythrocytes by standard methods under a low oxygen atmosphere (5% O2, 5% CO2, 90% N2) in an environmental chamber. The culture medium was RPMI 1640, supplemented with 25 mM Hepes buffer, 25 mg/liter gentamicin sulfate, 45 mg/liter hypoxanthine, 10 mM glucose, 2 mM glutamine, and 0.5% Albumax II (complete medium). The parasites were maintained in fresh human erythrocytes suspended at a 2% hematocrit in complete medium at 37° C. Stock cultures were sub-passaged every 3 to 4 days by transfer of infected red cells to a flask containing complete medium and uninfected erythrocytes.
(§2) In vitro antimalarial activity of the test compounds was assessed by a fluorescence-based method described previously (Smilkstein et al., 2004, Antimicrobial Agents and Chemotherapy, Vol. 48, pgs. 1803-1806) (reference format?). The studies were set up in triplicate in 96 well plates with two-fold dilutions of each test compound across the plate in a total volume of 100 μl and at a final red blood cell concentration of 2% (v/v). Stock solutions of each drug were prepared by dissolving in DMSO at 10 mM. […] In every case, an additional determination was performed to ensure bracketing of the IC50 value by at least an order of magnitude.
(§3) Automated pipeting and dilution was carried out by a programmable Precision 2000 robotic station (Bio-Tek, Winooski, Vt.). An initial parasitemia of 0.2% was attained by addition of normal uninfected red cells to a stock culture of asynchronous parasite infected red cells (PRBC). The plates were incubated for 72 hrs at 37° C. in an atmosphere of 5% CO2, 5% O2, and 90% N2. After this period, the SyBrGreen I dye-detergent mixture (100 μl) was added and the plates were incubated at room temperature for an hour in the dark and then placed in a 96-well fluorescence plate reader (Gemini-EM, […]) for analysis with excitation and emission wavelength bands centered at 497 and 520 nm, respectively.

[2] = test system: Murine splenic lymphocytes; experiment: MSLCs-concanavalin A induced proliferation (blastogenesis) cytotoxicity assay, Alamar Blue fluorescence; details: Table 2, 24-hr MSLCs-concanavalin A induced proliferation
Procedure: *Data are the average of at least 3 independent experiments, each performed in triplicate with the aid of a Precision 2000 robotic pipeting station. IC50 values were determined by the MSF assay. […] MSLCs=Murine splenic lymphocytes. Cytotoxicity was determined using a 24-hr MSLCs-concanavalin A induced proliferation assay using the Alamar Blue fluorescence method. IVTI=in vitro therapeutic index calculated from the ratio of IC50 values based on the cytotoxicity observed in the blastogenesis assay and the antimalarial potency against the D6 strain of P. falciparum. NT=not tested.
*Data are the average of at least 3 independent experiments, each performed in triplicate with the aid of a Precision 2000 robotic pipeting station. IC50 values were determined by the MSF assay (Smilkstein et al., AAC, 2004). MSLCs=Murine splenic lymphocytes. Cytotoxicity was determined using a 48-hr MSLCs-concanavalin A induced proliferation assay using the Alamar Blue fluorescence method. IVTI=in vitro therapeutic index calculated from the ratio of IC50 values of the cytotoxicity observed in the blastogenesis assay and antimalarial potency against the D6 strain of P. falciparum. NA=not applicable; ND=not determined.

[3] = test system: drug susceptible (D6) strain of Plasmodium falciparum; experiment: In vitro antimalarial MSF (SyBrGreen I fluorescence) assay, D6 strain
Procedure: as §1, §2, §3

[4] = test system: Murine splenic lymphocytes; experiment: MSLCs-concanavalin A induced proliferation (blastogenesis) cytotoxicity assay, Alamar Blue fluorescence; details: Table 3, 48-hr MSLCs-concanavalin A induced proliferation
[5] = Table 2, 72 hrs, average of at least 3 experiments
[6] = Table 2, MSF assay, 72 hrs, average of at least 3 experiments, read-out: D6 IC50
[7] = Plasmodium falciparum, D6, strain not given, read-out: IC50 value of parent compound used for comparison
[8] = Mus musculus, Splenic lymphocyte
[9] = Plasmodium falciparum, D6, Table 3, MSF assay, read-out: D6 IC50
[10] = Table 3, MSF assay, read-out: D6 IC50
[11] = Plasmodium falciparum, DD2, Table 3
[12] = Plasmodium falciparum, D6, Table 4, MSF assay, read-out: D6 IC50

| SMILES | IC50 [1, 5] [nM] | IC50 [3, 6] [nM] | IC50 [2] [nM] | also measured |
| --- | --- | --- | --- | --- |
| O=c1c2ccc(O)cc2[nH]c2cc(Cl)ccc12 [No. 14, 3-hydroxy-6-chloroacridone] | – | – | – | IC50 [3, 7]: > 2200 nM |
| COc1ccc2c(=O)cc(C)[nH]c2c1 [No. 43, 2-methyl-7-methoxy-4-(1H)-quinolone] | – | – | – | IC50 [3, 7]: > 2500 nM |
| O=C1C=C(O)C(=O)c2ccccc21 [No. 47, 2-hydroxy-1,4-naphthoquinone, reference compound] | – | – | – | IC50 [3, 7]: ~1800 nM |
| O=c1c2ccc(O)cc2oc2cc(O)ccc12 [No. 52, 3,6-dihydroxyxanthone, reference compound] | – | – | – | IC50 ([3]; Plasmodium falciparum, D6, read-out: IC50 value of parent compound used for comparison): > 100000 nM |
| O=c1c2ccccc2[nH]c2ccc(O)cc12 [compound 5] | 4400 | 9000 | > 25000 | – |
| O=c1c2ccccc2[nH]c2cc(O)ccc12 [compound 6] | 504 | 2000 | > 25000 | – |
| COc1ccc2[nH]c3cc(Cl)ccc3c(=O)c2c1 [compound 7] | 65 | 45 | > 25000 | – |
| O=c1c2ccc(Cl)cc2[nH]c2ccc(O)cc12 [compound 8] | 260 | 190 | 24000 | – |
| COc1ccc2nc3cc(Cl)ccc3c(N)c2c1 [compound 9] | 42 | 18 | 450 | – |
| O=c1c2ccc(Cl)cc2[nH]c2ccc(OCCCCCBr)cc12 [compound 10] | 152 | 70 | 12000 | – |
| O=c1c2ccc(O)cc2oc2cc(OCCCCCC(F)(F)F)ccc12 [compound 11] | 40 | 46 | > 25000 | – |
| O=C1C=C(OCCCCCC(F)(F)F)C(=O)c2ccccc21 [compound 12] | 95 | 67 | 5600 | – |
| COc1ccc2c(=O)c3ccc(Cl)cc3[nH]c2c1 [compound 13] | 192 | 76 | > 25000 | – |
| O=c1c2ccc(O)cc2[nH]c2cc(Cl)ccc12 [compound 14] | 9200 | 2200 | 14000 | – |
| O=C1c2ccc(OCCCCCC(F)(F)F)cc2C(=O)c2ccc(O)cc21 [compound 15] | 54 | 27 | > 25000 | – |
| O=c1c2ccc(Cl)cc2[nH]c2cc(OCCCCCCl)ccc12 [compound 16] | 13 | 12 | > 25000 | – |
| O=c1c2ccc(Cl)cc2[nH]c2cc(OCCCC(F)(F)F)ccc12 [compound 17] | 1.2 | 1 | > 25000 | – |
| O=c1c2ccc(Cl)cc2[nH]c2cc(OCCCCC(F)(F)F)ccc12 [compound 18] | 0.5 | 0.3 | > 25000 | – |
| O=c1c2ccc(Cl)cc2oc2cc(OCCCCC(F)(F)F)ccc12 [compound 19] | 18000 | 16000 | > 25000 | – |
| O=c1c2ccccc2[nH]c2cc(OCCCCC(F)(F)F)ccc12 [compound 20] | 0.3 | 0.5 | > 25000 | – |
| O=c1c2ccc(Cl)cc2[nH]c2cc(OCCCCCC(F)(F)F)ccc12 [compound 21] | 0.07 | 0.06 | > 25000 | – |
| O=c1c2ccc(Cl)cc2[nH]c2ccc(OCCCCCC(F)(F)F)cc12 [compound 22] | 15 | 10 | > 25000 | – |
| O=c1c2ccc(Cl)cc2[nH]c2cc(OCCCCC(F)(F)C(F)(F)F)ccc12 [compound 23] | 0.02 | 0.02 | > 25000 | – |

| SMILES | IC50 [1, 5] [nM] | IC50 [3, 6] [nM] | IC50 [2] [nM] | also measured |
| --- | --- | --- | --- | --- |
| O=c1c2ccc(Cl)cc2[nH]c2cc(OCCCCC(F)(C(F)(F)F)C(F)(F)F)ccc12 [compound 24] | – | 0.0015 | > 25000 | – |
| O=c1c2ccccc2[nH]c2ccc(OCCCCCC(F)(F)F)cc12 [compound 25] | 49 | 36 | > 25000 | – |
| O=c1c2ccccc2[nH]c2cc(OCCCCCC(F)(F)F)ccc12 [compound 26] | 0.015 | 0.43 | > 25000 | – |
| O=c1c2ccccc2[nH]c2c(OCCCCCC(F)(F)F)cccc12 [compound 27] | 515 | 446 | > 25000 | – |
| O=c1c2ccc(Cl)cc2[nH]c2cc(OCCCCCCCC(F)(F)F)ccc12 [compound 28] | 0.17 | 0.16 | > 25000 | – |
| O=c1c2ccc(Cl)cc2[nH]c2cc(OCCCCCCCCO)ccc12 [compound 29] | 3.5 | 2.2 | > 25000 | – |
| O=c1c2ccc(Cl)cc2[nH]c2cc(OCCCCCCCCCCC(F)(F)F)ccc12 [compound 30] | 0.025 | 0.023 | > 25000 | – |
| Cn1c2cc(Cl)ccc2c(=O)c2ccc(OCCCCC(F)(F)F)cc21 [compound 31] | 3500 | 4000 | > 25000 | – |
| Nc1ccc2c(=O)c3ccc(OCCCCCC(F)(F)F)cc3[nH]c2c1 [compound 34] | – | – | > 25000 | – |
| CC1CCC2C(C)C(=O)OC3OC4(C)CCC1C32OO4 (centres unmarked) [compound 39] | 0.9 | 0.65 | > 25000 | – |
| COc1ccc2c(=O)cc[nH]c2c1 [compound 40] | – | – | – | IC50 [4, 8]: > 25000 nM; IC50 [3, 9]: > 2500 nM |
| CCOC(=O)c1c[nH]c2cc(OC)ccc2c1=O [compound 41] | – | – | – | IC50 [4]: > 25000 nM; IC50 [3, 10]: 440 nM |
| COc1ccc2c(=O)c(C(=O)O)c[nH]c2c1 [compound 42] | – | – | – | IC50 [4, 8]: > 25000 nM; IC50 [3, 9]: > 2500 nM |
| COc1ccc2c(=O)cc(C)[nH]c2c1 [compound 43] | – | – | – | IC50 [4, 8]: > 25000 nM; IC50 [1, 11]: 13700 nM; IC50 [3, 9]: 7000 nM |
| COc1ccc2c(=O)c(CCCCCC(F)(F)F)c(C)[nH]c2c1 [compound 44] | – | – | – | IC50 [4, 8]: > 25000 nM; IC50 [1, 11]: 12.8 nM; IC50 [3, 9]: 10.2 nM |
| COc1ccc2c(=O)c(CCCCCCCCCCC(F)(F)F)c(C)[nH]c2c1 [compound 45] | – | – | – | IC50 [4]: > 25000 nM; IC50 ([1]; Table 3): 0.36 nM; IC50 [3, 10]: 0.2 nM |
| O=C1C=C(O)C(=O)c2ccccc21 [compound 47] | – | – | – | IC50 [3, 12]: 1800 nM |
| O=C1C=C(OCCCCC(F)(F)F)C(=O)c2ccccc21 [compound 48] | – | – | – | IC50 [3, 12]: 51.1 nM |
| O=C1C=C(CCCCCC(F)(F)F)C(=O)c2ccccc21 [compound 49] | – | – | – | IC50 [3, 12]: 823 nM |
| O=c1c2ccc(O)cc2oc2cc(O)ccc12 [compound 52] | – | – | – | IC50 ([3]; Plasmodium falciparum, D6, read-out: D6 IC50, nM): > 100000 nM |
| O=c1c2ccc(O)cc2oc2cc(OCCCCCC(F)(F)F)ccc12 [compound 53] | – | – | – | IC50 [3, 12]: 780 nM |
| O=C1c2ccccc2Cc2ccc(O)cc21 [compound 54] | – | – | – | IC50 [3, 12]: 8300 nM |
| O=C1c2ccccc2Cc2ccc(OCCCCCC(F)(F)F)cc21 [compound 55] | – | – | – | IC50 [3, 12]: 510 nM |

Continued, in another order:

| IC50 [1, 5] [nM] | IC50 [3, 6] [nM] | SMILES | IC50 [2] [nM] | also measured |
| --- | --- | --- | --- | --- |
| 102 | 7.8 | CCN(CC)CCCC(C)Nc1ccnc2cc(Cl)ccc12 (racemic) [compound 36] | 3900 | – |
| 8.8 | 5.9 | OC(c1cc(C(F)(F)F)nc2c(C(F)(F)F)cccc12)C1CCCCN1 (racemic) [compound 38] | 4800 | – |
| 10 | 2.9 | Nc1c2ccc(Cl)cc2nc2cc(OCCCCCC(F)(F)F)ccc12 [compound 32] | 250 | – |
| 5.8 | 3.2 | O=c1c2ccc(OCCCCCC(F)(F)F)cc2[nH]c2cc([N+](=O)[O-])ccc12 [compound 33] | > 25000 | – |
| 35 | 32 | O=C1C=C(OCCCCC(F)(F)F)C(=O)c2ccccc21 [compound 35] | 14000 | – |
| 68 | 11 | C=CC1CN2CCC1CC2C(O)c1ccnc2ccc(OC)cc12 (centres unmarked) [compound 37] | 23000 | – |
